Test: gradient 5% acetonitrile 3 min, to 50% in 2 min, to 85% in 15 min, held 3 min, 100 µL/min
Conditions: column: Zorbax Extend-C18 2.1 x 50 mm; eluents: water / acetonitrile, 0.1% formic acid
How it was run: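 Values are retention times taken from adduct peaks that software picked and an analyst inspected. The pure standards were run as mixtures of ~100 molecules on HPLC linked to a quadrupole time-of-flight mass spectrometer, in positive and negative ionization mode. A Zorbax Extend-C18 column (2.1 × 50 mm, 1.8 μm) was used at 100 μL/min with water and acetonitrile, each including 0.1% formic acid.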

RP-LC retention time [s] | Structure (SMILES)
609 | O=C(NCc1ccccn1)C1CCN(S(=O)(=O)c2cc(C(=O)N3CCCC3)cs2)CC1
680 | COc1ccc(-c2c(C)noc2NC(C)=O)cc1S(=O)(=O)N1CCC2(CC1)OCCO2
1030 | COc1cccc(CCc2nc(-c3ccc4oc(C)nc4c3)no2)c1
748 | COc1ccc(N2CC(c3nc(-c4ccc(CNC(=O)C5CC5)s4)no3)CC2=O)cc1 (stereo not drawn)
993 | CNC(=O)c1ccc(N2C(=S)N(c3cnc(C#N)c(C(F)(F)F)c3)C(=O)C23CCC3)cc1F
1160 | CCOc1ccccc1NC(=O)Cn1c(C)nc2c(sc3nc(-c4ccccc4)ccc32)c1=O
652 | COC1CCOC2(CCN(C(=O)c3ccoc3)CC2)C1 (stereo not drawn)
890 | CCOC(=O)c1nc(Nc2ccc(F)cc2Cl)c2ccccc2n1
836 | CCCN1C(=O)c2c(C(=O)NCc3ccccc3F)ncn2CC1(C)C(=O)NCCC(C)C (stereo not drawn)
965 | COC(=O)c1cc(C)nc2c1c(=O)n(Cc1c(F)cccc1Cl)c(=O)n2C
771 | Cc1cc(-c2nnc(-c3ccc(F)cc3)o2)c(C)n1CC(=O)NCC1CCCO1 (stereo not drawn)
909 | COc1ccc(-c2cc3nn(CC(=O)Nc4c(C)cccc4C)c(=O)n3c(C)n2)cc1
830 | O=C(CSc1ncnc2c1nnn2Cc1ccccc1)Nc1ccc2c(c1)OCCO2
999 | Cc1cccc(OCc2nc(-c3cccc(-c4ccn[nH]4)c3)no2)c1
625 | COc1ccc(NC(=O)c2c(C)oc3c2C2=NCCN2C=N3)cc1Cl
652 | CCN(CC)CCCNC(=O)c1c(-c2ccc(Br)s2)noc1C
1000 | CCCCNC(=O)COc1c(C)cc(Br)cc1C
827 | COc1cc(NC(=O)Cc2ccc(S(=O)(=O)C(C)C)cc2)c2ncccc2c1
569 | CN1CCN(CCCNC(=O)CC2CCN(C(=O)c3cc4cc(Cl)ccc4[nH]3)CC2)CC1
683 | Cc1ccc(S(=O)(=O)N2CCC(CC(=O)NCCN(C)Cc3ccccc3)CC2)cc1
635 | CNC(=O)C1CCCN1C(=O)Nc1cccc(C)c1 (stereo not drawn)
727 | CN1CCn2cc(S(=O)(=O)Nc3cc(F)cc(F)c3)cc2C1=O
780 | CCn1nc(C)c(S(=O)(=O)N2CCN(C(=O)C(C)Oc3ccccc3)CC2)c1C (stereo not drawn)

RP-LC retention time [s] | Structure (SMILES)
730 | CCc1cccc(C)c1Nc1c(-c2cccc(O)c2)nc2ncccn12
643 | O=C(NCc1ccccc1Cl)c1coc(NC(=O)c2cnccn2)n1
728 | CCCC(=O)N1CCc2c(c(C(=O)NCc3ccc4c(c3)OCO4)nn2C)C1
872 | Cc1ccc(NC(=O)N2CCCC2c2c(C)noc2C)c(Cl)c1 (stereo not drawn)
681 | COc1ccc(S(=O)(=O)N2CCCC(C(=O)N3CCOCC3)C2)cc1OC (stereo not drawn)
871 | C[C@H]1CN(S(=O)(=O)c2ccccc2)C[C@@H]1c1nc(-c2ccncc2)no1
691 | CCN(CC)C(=O)c1ccc(-n2nc(C)c3c2CCCC3=O)cc1
554 | CCOC(=O)c1c(C)[nH]c(CCC(=O)NCCN2CCCC2)c1C
729 | CCOC(=O)c1c(C)[nH]c(CCC(=O)NCCc2c(C)noc2C)c1C
594 | CCCn1ncc(N2CCC(C(=O)NCCCN3CCCC3=O)CC2)cc1=O
1100 | O=c1c2sccc2n(Cc2nc(-c3ccc(F)cc3)no2)c(=O)n1Cc1ccc(F)cc1
951 | Cc1ccc(-c2noc(Cn3ccn(Cc4ccc(Cl)cc4)c(=O)c3=O)n2)cc1
710 | Cc1ccc(CNS(=O)(=O)c2c(C)nc3sc(C)nn23)o1
916 | Cc1cccc(NC(=O)CN2C(=O)CCCc3cc(S(=O)(=O)N4CCCC4)ccc32)c1C
847 | Cc1ccc(-n2c(N3CCCC(C(=O)NCC(C)C)C3)nc3ccsc3c2=O)cc1 (stereo not drawn)
859 | O=C(NC1CC1)c1nnn2c1COC(c1ccc(Cl)cc1)C2 (stereo not drawn)
705 | COc1ccc(C2Cn3cnc(C(=O)N4CCC(C(=O)NC5CCCC5)CC4)c3CO2)cc1 (stereo not drawn)
591 | Cn1c(N2CCCC(C(=O)NCCN3CCN(c4ccccc4F)CC3)C2)cc(=O)n(C)c1=O (stereo not drawn)
783 | COc1ccc(-c2csc(Nc3cc(C)ccn3)n2)cc1
652 | C[C@@H](NC(=O)c1cccc(Cl)c1)C(=O)NCc1cscn1
889 | Cc1nc(Cn2cccc2C(=O)Nc2ccc(C)c(F)c2)no1
691 | CCN(CC)C(=O)c1ccc2c(c1)N(CC(=O)N1CCCCC1)C(=O)CO2
678 | Cc1ccc(NS(=O)(=O)c2cc3n(c2)CCCNC3=O)c(C)c1

RP-LC retention time [s] | Structure (SMILES)
855 | CCC(=O)Nc1ccc(-n2cnc(C(=O)N3CCN(c4cccc(C)c4C)CC3)c2)nc1
636 | COc1ccc(CC(=O)NCC(=O)Nc2nc3ccccc3[nH]2)cc1Cl
599 | NCCC1CCN(C(=O)Nc2cc(F)cc(F)c2)CC1
527 | O=C(NCCN1CCCCC1)c1nc2ccccn2c1-c1ccsc1
586 | c1cc(N2CCCCCC2)ncc1-c1noc(CN2CCCC2)n1
590 | CN1C(=O)[C@H]2CN(Cc3ccc(F)c(F)c3)C[C@H]2C1=O
848 | Cc1csc(-c2cc(S(=O)(=O)NC3CCCC3)cn2CC(=O)N2CCCC2)n1
651 | CC1=C(c2cccc(Cl)c2)S(=O)(=O)N=C1N1CCC(NC(=O)NCC(C)C)CC1
833 | Fc1ccc(C(OCCCc2cnc[nH]2)c2ccc(F)cc2)cc1
582 | CCN(CCN(C)C)c1ccc(NS(=O)(=O)c2ccccc2)cc1C(=O)O
794 | CCC(=O)N1CCc2cc(N3CC(C(=O)Nc4cc(C)ccc4OC)CC3=O)ccc21 (stereo not drawn)
686 | CCn1nnc2c(Nc3cccc(C(C)=O)c3)ncnc21
736 | COc1ccc(N2CCN(c3ncccc3-c3nc(C)no3)CC2)cc1
1180 | Cc1sc(C)c(S(=O)(=O)NCCc2ccccc2)c1-c1cc(C(F)(F)F)on1
730 | CCOc1ccc2nc(N3CCCC(C(=O)NCCc4ccc(S(N)(=O)=O)cc4)C3)sc2c1 (stereo not drawn)
751 | Cc1ccc(-c2cnn3c(N4CCN(c5ccccn5)CC4)cc(C)nc23)cc1
784 | CCn1c(N2CCC(C(=O)NC3CCCCC3)CC2)cc(=O)n(C)c1=O
754 | CC(C)C(=O)NCc1nc(-c2ccccc2Cl)no1
883 | Cc1ccccc1-c1cn2ccn(-c3cccc(Cl)c3)c(=O)c2n1
1330 | COC(=O)c1ccc2c(=O)n(Cc3ccc(OC)cc3)c(N3CCC(C)CC3)nc2c1
1050 | CCCN1C(=O)c2cc(S(=O)(=O)Nc3ccc(F)cc3F)ccc2Oc2cccnc21

Structure (SMILES) | RP-LC retention time [s]
COc1cccc(Cn2cc(C(=O)O)nn2)c1 | 635

Source: the METLIN SMRT retention time set (Domingo-Almenara et al. 2019)
